The target of test [1] is von Hippel-Lindau disease tumor suppressor/Mitogen-activated protein kinase 14 (Homo sapiens) (UniProt Q16539+P40337). Nature of the test: PROTAC activity at VHL/N-terminal His-tagged human p38alpha expressed in Escherichia coli BL21-CodonPlus (DE3)-RIPL cells assessed as maximal degradation relative to control.
Test [2] deals with Protein cereblon/Mitogen-activated protein kinase 13 (Homo sapiens) (UniProt O15264+Q96SW2). The test can be described thus: PROTAC activity at CRBN/N-terminal His-tagged human p38delta expressed in Escherichia coli BL21-CodonPlus (DE3)-RIPL cells assessed as maximal degradation degradation relative to control.
Test [3] deals with T1, von Hippel-Lindau disease tumor suppressor/GTPase KRas (Homo sapiens, UniProt P01116+P40337, G12C). Nature of the test: PROTAC activity at VHL/KRAS G12C mutant in human NCI-H23 cells assessed as induction of KRAS G12C degradation by Immunoblot analysis. It is filed as cell-based. (In general: In western blotting, separated proteins are transferred to a membrane and probed.)

Test [4] deals with T1, von Hippel-Lindau disease tumor suppressor/GTPase KRas. The test can be described thus: PROTAC activity at VHL/KRAS G12C mutant in human NCI- H2030 cells assessed as induction of KRAS G12C degradation by Immunoblot analysis. It is filed as cell-based.
For test [5] the target is unchanged. Nature of the test: PROTAC activity at VHL/KRAS G12C mutant in human MIA PaCa-2 cells assessed as induction of KRAS G12C degradation by Immunoblot analysis. The test is classed as cell-based.
For test [6] the target is unchanged. Nature of the test: PROTAC activity at VHL/KRAS G12C mutant in human SW1573 cells assessed as induction of KRAS G12C degradation by Immunoblot analysis. The test is classed as cell-based.
Test [7] has the same target. The test can be described thus: PROTAC activity at VHL/KRAS G12C mutant in human NCI-H358 cells assessed as induction of KRAS G12C degradation by Immunoblot analysis. The test is classed as cell-based.
Test [8] relates to MV4-11. The test can be described thus: Antiproliferative activity against human MV4-11 cells assessed as inhibition of cell growth incubated for 3 days by CellTiter-Glo assay. It is filed as functional, cell-based. The note with it: MV4-11, 72 h. On the technique in general: In ATP-based viability assays light output follows the ATP content of the culture.
Test [9] has as its target von Hippel-Lindau disease tumor suppressor (Homo sapiens, UniProt P40337). Nature of the test: Binding affinity to VHL (unknown origin) assessed as inhibition constant.
For test [10], the target named is Bromodomain-containing protein 4 (Homo sapiens, UniProt O60885). The test can be described thus: Induction of HiBit-tagged BRD4 degradation in human A549 cells incubated for 4 to 24 hrs by luminescence based Nano-Glo assay. It is filed as cell-based. A general note: The HiBiT peptide binds its large partner to form an active luciferase.

Structures are written as SMILES.

What is called Emax is the size of the effect at its maximum, as opposed to the concentration needed. Usually EC50 stands for the concentration at which the effect is half-maximal. In general, IC50 refers to the midpoint of a concentration-inhibition curve. One may read the Ki as a measure of affinity in units of concentration, obtained from inhibition or displacement.

T1 sequence (P01116 whole entry G12C, stated change not applied): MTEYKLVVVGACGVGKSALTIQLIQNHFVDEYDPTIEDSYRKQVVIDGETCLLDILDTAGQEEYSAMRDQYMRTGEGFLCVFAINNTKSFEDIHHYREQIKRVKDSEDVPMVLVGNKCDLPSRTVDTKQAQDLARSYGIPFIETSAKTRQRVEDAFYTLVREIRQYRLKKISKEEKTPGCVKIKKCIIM
T1 sequence (P40337 whole entry, stated change not applied): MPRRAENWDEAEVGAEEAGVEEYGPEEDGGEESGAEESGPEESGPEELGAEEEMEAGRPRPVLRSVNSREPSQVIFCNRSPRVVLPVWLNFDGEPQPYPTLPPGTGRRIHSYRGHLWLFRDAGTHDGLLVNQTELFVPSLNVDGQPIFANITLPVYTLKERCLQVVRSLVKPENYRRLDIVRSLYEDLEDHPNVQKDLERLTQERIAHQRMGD
Chain of von Hippel-Lindau disease tumor suppressor/Mitogen-activated protein kinase 14 (Homo sapiens) (P40337 whole entry partner): as the sequence (P40337 whole entry, stated change not applied) above
Chain of von Hippel-Lindau disease tumor suppressor/Mitogen-activated protein kinase 14 (Homo sapiens) (Q16539 2-360 limits assumed): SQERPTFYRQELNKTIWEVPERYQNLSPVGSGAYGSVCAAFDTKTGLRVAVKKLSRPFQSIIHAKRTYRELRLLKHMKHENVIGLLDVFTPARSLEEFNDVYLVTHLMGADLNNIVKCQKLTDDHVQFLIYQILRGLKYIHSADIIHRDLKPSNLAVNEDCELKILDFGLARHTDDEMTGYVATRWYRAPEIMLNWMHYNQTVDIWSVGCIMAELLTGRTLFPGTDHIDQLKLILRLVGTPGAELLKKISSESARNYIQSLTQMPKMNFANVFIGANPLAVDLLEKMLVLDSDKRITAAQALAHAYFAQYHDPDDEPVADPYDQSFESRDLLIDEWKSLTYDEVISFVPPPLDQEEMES
Chain of von Hippel-Lindau disease tumor suppressor (P40337 whole entry): as the sequence (P40337 whole entry, stated change not applied) above
Chain of Protein cereblon/Mitogen-activated protein kinase 13 (Homo sapiens) (O15264 whole entry, looked up): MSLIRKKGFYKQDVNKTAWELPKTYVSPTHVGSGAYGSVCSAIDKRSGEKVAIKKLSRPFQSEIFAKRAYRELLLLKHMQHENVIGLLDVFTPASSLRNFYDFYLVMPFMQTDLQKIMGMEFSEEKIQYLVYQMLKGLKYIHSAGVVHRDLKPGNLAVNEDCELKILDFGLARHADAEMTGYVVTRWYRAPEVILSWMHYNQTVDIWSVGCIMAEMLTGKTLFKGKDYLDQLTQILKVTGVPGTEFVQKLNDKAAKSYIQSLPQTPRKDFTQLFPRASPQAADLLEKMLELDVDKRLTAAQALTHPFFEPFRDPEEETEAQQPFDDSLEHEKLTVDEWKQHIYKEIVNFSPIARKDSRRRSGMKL
Chain of Protein cereblon/Mitogen-activated protein kinase 13 (Homo sapiens) (Q96SW2 whole entry, looked up): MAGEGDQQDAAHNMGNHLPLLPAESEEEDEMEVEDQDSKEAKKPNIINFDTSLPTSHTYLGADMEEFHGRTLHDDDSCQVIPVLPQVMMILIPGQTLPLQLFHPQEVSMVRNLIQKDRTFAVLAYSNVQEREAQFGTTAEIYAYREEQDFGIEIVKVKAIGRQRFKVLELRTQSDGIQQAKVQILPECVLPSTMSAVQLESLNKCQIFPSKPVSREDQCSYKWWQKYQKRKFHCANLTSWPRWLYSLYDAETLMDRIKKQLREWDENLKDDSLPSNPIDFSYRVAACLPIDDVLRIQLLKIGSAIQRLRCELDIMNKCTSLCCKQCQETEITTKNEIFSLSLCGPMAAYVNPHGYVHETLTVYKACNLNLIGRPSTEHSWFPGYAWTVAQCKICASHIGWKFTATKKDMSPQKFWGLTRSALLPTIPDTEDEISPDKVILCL

Turning to `COc1cc2c(Oc3ccc(NC(=O)C4(C(=O)Nc5ccc(F)cc5)CC4)cc3F)ccnc2cc1OCCCN1CCOCC1`, the Emax in test [1] and in [2] was 91% each time.

With `C=C(F)C(=O)N1CCN(c2nc(OC[C@@H]3CCCN3CCCOCCC(=O)N[C@H](C(=O)N3C[C@H](O)C[C@H]3C(=O)NCc3ccc(-c4scnc4C)cc3)C(C)(C)C)nc3c2CCN(c2cccc4cccc(Cl)c24)C3)C[C@@H]1CC#N`, the 50% effective concentration (EC50) in test [3], in test [4], in test [5], in [6] and in test [7] was 250 nM each time.

On to `Cc1sc2c(c1C)C(c1ccc(Cl)cc1)=N[C@@H](CC(=O)NCCCCNC(=O)COc1cccc3c1C(=O)N(C1CCC(=O)NC1=O)C3=O)c1nnc(C)n1-2` (stereo not given in full), for which the IC50 in [8] turned out to be 6.1 nM.

With `Cc1ncsc1-c1ccc(CNC(=O)[C@@H]2C[C@@H](O)CN2C(=O)c2cccc(N)c2C)cc1`, in [9], the Ki came to 670 nM.

In test [10], `Cc1cc([C@@H](C(=O)N2C[C@@H](O)C[C@@H]2C(=O)N[C@H](C)c2ccc(-c3scnc3C#CCOCCOCCOCCNC(=O)C[C@@H]3N=C(c4ccc(Cl)cc4)c4c(sc(C)c4C)-n4c(C)nnc43)cc2)C(C)C)on1` yielded an EC50 of under 50 nM.

These data come from ChEMBL document CHEMBL5370542, “Current advances of small molecule E3 ligands for proteolysis-targeting chimeras design” (Eur J Med Chem, 2023).
